pIC50: −log10 of the molar value.
Tests used:
[1] = system: androgen receptor splice variant (ARV7) in LNCaP cells; test: LNCaP ARE Luciferase Assay, ARV7 cells; format: cell-based; conditions: LNCaP cells overexpressing ARV7, 10 nM DHT, 4 hours; 5 or 10 uM 0032661
Method: (§1) LNCaP prostate cancer cells as well as LNCaP cells that overexpress the oncogenic androgen receptor splice variant (designated ARV7) were engineered to express an Androgen Receptor (AR) luciferase reporter (SABiosciences). […] After 4 hours, cell lysate was harvested. 50 μg protein lysates were used in a luciferase assay.

[2] = system: Androgen Receptor (AR) luciferase reporter in LNCaP prostate cancer cells; test: LNCaP ARE Luciferase Assay; format: cell-based; conditions: 10 nM DHT, 4 hours, 1 uM bicalutamide, 1 uM enzalutamide, 5 or 10 uM 0032661
Method: as §1

[3] = system: androgen receptor response gene (PSA) in LNCaP prostate cancer cells; test: Inhibition of Androgen Receptor Target Gene Transcription (PSA qPCR); format: cell-based; conditions: 10 nM DHT, 4 hours, 10 uM bicalutamide, 10 uM enzalutamide, 12.5 or 25 uM 0032661
Method: After 4 hours, RNA was harvested and converted into cDNA. qPCR analysis for PSA was performed on all samples and normalized to expression of GAPDH. The data, shown in FIG. 11, is expressed as fold change relative to PSA expression of the cFBS sample.

[4] = system: MCF-7 human breast cancer cell line; test: Cell Viability Assay (MCF7), PrestoBlue; format: cell-based; conditions: MCF7, 72 h, MCF-7 cells, three days after drug treatment
Method in brief: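 MCF-7 cells seeded 24 hours before dosing with 0 to 200 μM compound (11 concentrations, 1% DMSO final) for three days. PrestoBlue (resazurin) added to 10% final, 1 hour incubation, fluorescence at ex 560/em 590 nm; percentage living cells relative to control wells.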

MCF7 breast cancer cells = test: Tumor Burden, MCF7 tumors in mice; format: in vivo, Nod/Scid-gamma null immunocomprimised mice
Method: MCF7 breast cancer cells grown were innoculated into Nod/Scid-gamma null immunocomprimised mice. The resulting tumors were allowed to reach approximately 100 mm^3 in size and then mice were randomized into vehicle, Faslodex®, 0032661, or Faslodex® plus 0032661 treatment groups. Faslodex® treated mice were dosed with 500 ug Faslodex® once a week via intramuscular injection. 0032661 treated mice were dosed with 35 mg/kg 0032661 five days a week via intraparatoneal injection. Tumors were measured by calipers twice a week.

[5] = system: Androgen Receptor (AR) luciferase reporter in LNCaP prostate cancer cells; test: Inhibition of Androgen Receptor Luciferase Expression; format: cell-based; conditions: 10 nM DHT, 4 hours, 1 uM bicalutamide, 1 uM enzalutamide, 5 or 10 uM 0032661
Method: After 4 hours, cell lysate was harvested. 50 μg protein lysates were used in a luciferase assay. The data, shown in FIG. 12, is expressed as relative luciferase units (RLU).

[6] = target: His-Rac1 / GST-PBD (PAK Binding Domain) (Homo sapiens, UniProt P63000); test: Rac Activation AlphaScreen Assay (Rac1 AS); format: biochemical; conditions: 500 nM GTPγS, 37° C., 1 hour; 'positive' = signal generated was higher than the positive control
Method: AlphaScreen® assays were performed in 96-well microplates in a final reaction volume of 60 μl. Recombinant His-Rac1, recombinant GST-PBD (PAK Binding Domain), donor and acceptor beads (PerkinElmer), and inhibitors were incubated in exchange buffer (20 mM Tris pH 7.5, 50 mM NaCl, 1 mM MgCl2, 1 mM EDTA, 500 nM GTPγS (guanosine 5′-[γ-thio]triphosphate)) at 37° C. Readings were performed on a Tecan M1000 pro microplate reader after 1 hour.

Rac1 protein = target: T1, Rac1 protein (Homo sapiens, UniProt P63000); test: Fluorescence Polarization Assay (Rac1 FP); format: binding; conditions: 125 nM his-tagged Rac1, 12.5 nM Bodipy-TR GTPγS, 30 minutes at 37° C.
T1 construct: purchased Cytoskeleton Inc. RC01
Method in brief: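 His-tagged recombinant Rac1 (125 nM final) plus 12.5 nM Bodipy-TR GTPγS incubated with serially diluted compound for 30 min at 37 °C. Buffer: 20 mM Tris pH 7.5, 50 mM NaCl, 1 mM MgCl, 1 mM EDTA. Fluorescence polarization read at 590/625 nm excitation/emission.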

[7] = system: estrogen receptor response genes Cyclin D1 and pS2 in MCF7 breast cancer cells; test: Inhibition of Estrogen Receptor Target Gene Protein Expression (immunoblot); format: cell-based; conditions: MCF7, 10 nM E2, 18 hours
Method: After 18 hours, protein was harvested. SDS-PAGE followed by immunoblotting of samples was performed using standard techniques. Protein lysates were immunoblotted for Estrogen Receptor (ER), Cyclin D1, pS2, and Actin.

[8] = system: PSA in LNCaP prostate cancer cells; test: Inhibition of Increased Protein Levels of PSA (immunoblot); format: cell-based; conditions: 10 nM DHT, 18 hours, 5 uM enzalutamide, 10, 15 or 20 uM 0032661
Method: After 18 hours protein was harvested. SDS-PAGE followed by immunoblotting of samples was performed using standard techniques. Protein lysates were immunoblotted for the Androgen Receptor (AR), PSA, and Actin.

- pIC50 [4]: 5.18
- pIC50 [6]: 4.35
- pIC50 (Rac1 protein): 5.49
Structure (SMILES): FC(F)(F)c1ccc2c(SCCCCCCn3cnc(CN4CCOCC4)c3)ccnc2c1 [Compound 0032661, 4-[[1-[6-[[7-(trifluoromethyl)-4-quinolyl]sulfanyl]hexyl]imidazol-4-yl]methyl]morpholine]
- luciferase expression of the ARV7 splice variant [1]: inhibited luciferase expression of the ARV7 splice variant
- androgen receptor luciferase expression (fold activation) [2]: inhibit the androgen receptor luciferase expression
- androgen receptor target gene transcription (PSA) [3]: inhibit the androgen receptor target gene transcription
- tumor burden, combination (MCF7 breast cancer cells; 500 ug Faslodex once a week intramuscular plus 35 mg/kg 0032661 five days a week): reduces tumor burden more than either single treatment alone
- anti-tumoral effect (tumor size by calipers) (MCF7 breast cancer cells; 35 mg/kg five days a week, intraperitoneal): strong anti-tumoral effects
- androgen receptor luciferase expression (RLU) [5]: inhibit the androgen receptor luciferase expression
- estrogen receptor target gene protein expression, combination ([7]; 1 uM fulv plus 5 uM 0032661): reduces estrogen receptor target gene protein expression more than either single treatment alone
- protein levels of estrogen receptor target genes (Cyclin D1, pS2) ([7]; 1 uM fulvestrant, 5 or 10 uM 0032661): inhibit the increase in protein levels of estrogen receptor target genes
- increase in protein levels of PSA [8]: inhibit the increase in protein levels of PSA
